Results published in patent US8883801B2, “Substituted pyrazolo[1,5-a]pyrimidines as mTOR inhibitors” (Merck Sharp & Dohme Corp., priority 2010, dated 2014).
Where two headings read alike, the source gives them in different places.

Assays:
[1] = tested on: mTORC2 activity: phosphorylated AKT Ser473 (pAKT S473) in PC3 cells; experiment: mTOR target engagement assay, immunofluorescent cell-based, mTORC2 readout; settings: 90 min treatment
In short: (§1)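 Read-out is immunofluorescence intensity, normalized to DMSO-only wells and fitted to a sigmoidal Hill equation for IC50. The mTORC1 arm probes phospho-4E-BP1 Thr37/46 and the mTORC2 arm phospho-AKT Ser473.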

[2] = tested on: mTORC1 activity: phosphorylated 4E-BP1 Thr37/46 (p4E-BP1 Thr37/46) in PC3 cells; experiment: mTOR target engagement assay, immunofluorescent cell-based, mTORC1 readout; settings: 90 min treatment, read-out: P4EBP1 IC50
In short: as §1

human mTOR enzyme = human mTOR enzyme (Homo sapiens, UniProt P42345); experiment: HTRF mTOR enzyme (kinase) assay; type: biochemical; settings: 5 μM ATP, 0.2 μM GST-S6K, read-out: hMTOR IC50
[3] = Homo sapiens, PC-3, 1.5 h, rated class

human mTOR enzyme, sequence (P42345 1360-2549 limits assumed): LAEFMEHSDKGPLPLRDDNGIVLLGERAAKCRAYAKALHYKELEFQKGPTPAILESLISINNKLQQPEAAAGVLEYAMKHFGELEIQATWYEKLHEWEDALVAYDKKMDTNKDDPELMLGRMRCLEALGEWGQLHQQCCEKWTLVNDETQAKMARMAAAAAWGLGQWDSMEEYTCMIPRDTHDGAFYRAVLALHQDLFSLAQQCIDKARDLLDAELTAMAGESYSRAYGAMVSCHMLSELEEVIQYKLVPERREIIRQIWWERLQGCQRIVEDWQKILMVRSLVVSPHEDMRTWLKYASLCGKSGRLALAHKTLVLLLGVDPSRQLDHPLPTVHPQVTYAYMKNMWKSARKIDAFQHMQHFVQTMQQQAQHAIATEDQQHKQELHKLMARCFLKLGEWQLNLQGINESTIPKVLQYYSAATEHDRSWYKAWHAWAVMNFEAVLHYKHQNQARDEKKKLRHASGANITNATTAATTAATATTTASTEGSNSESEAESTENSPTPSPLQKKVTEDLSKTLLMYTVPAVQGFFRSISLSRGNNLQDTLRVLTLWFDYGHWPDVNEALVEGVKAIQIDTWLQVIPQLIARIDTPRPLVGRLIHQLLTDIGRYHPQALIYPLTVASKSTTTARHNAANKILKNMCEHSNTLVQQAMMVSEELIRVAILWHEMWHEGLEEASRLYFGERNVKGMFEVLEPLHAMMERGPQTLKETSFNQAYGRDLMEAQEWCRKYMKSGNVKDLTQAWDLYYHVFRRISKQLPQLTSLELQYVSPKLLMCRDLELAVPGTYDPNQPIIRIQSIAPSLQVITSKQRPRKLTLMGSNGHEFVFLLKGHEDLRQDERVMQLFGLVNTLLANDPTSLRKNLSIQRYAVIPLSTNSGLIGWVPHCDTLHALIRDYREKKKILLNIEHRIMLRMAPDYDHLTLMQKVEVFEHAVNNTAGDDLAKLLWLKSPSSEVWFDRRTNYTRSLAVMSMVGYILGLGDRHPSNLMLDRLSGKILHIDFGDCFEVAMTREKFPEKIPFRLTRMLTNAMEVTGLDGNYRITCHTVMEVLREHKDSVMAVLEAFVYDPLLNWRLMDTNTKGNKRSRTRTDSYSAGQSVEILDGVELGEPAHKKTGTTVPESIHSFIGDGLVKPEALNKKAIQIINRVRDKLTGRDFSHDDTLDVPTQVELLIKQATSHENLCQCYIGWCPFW

Structure (SMILES): COCCO[C@]1(C(=O)N(C)C)CC[C@@H](c2nc3c(-c4cnn(-c5ccccc5)c4)cnn3c(N)c2S(C)(=O)=O)CC1 [Compound 91, (1R,4R)-4-(7-amino-6-(methylsulfonyl)-3-(1-phenyl-1H-pyrazol-4-yl)pyrazolo[1,5-a]pyrimidin-5-yl)-1-(2-methoxyethoxy)-N,N-dimethylcyclohexane-carboxamide]
- IC50 [1, 3]: 100 to 1000 nM
- IC50 [2, 3]: 1000 to 2000 nM
- IC50 (human mTOR enzyme; rated class): 1 to 100 nM

Structure (SMILES): CO[C@]1(C(=O)O)CC[C@H](c2nc3c(-c4cnn(-c5ccccc5)c4)cnn3c(N)c2Br)CC1 [Compound 31, (1S,4S)-4-(7-amino-6-bromo-3-(1-phenyl-1H-pyrazol-4-yl)pyrazolo[1,5-a]pyrimidin-5-yl)-1-methoxycyclohexane-carboxylic acid]
- IC50 [1, 3]: 1 to 100 nM
- IC50 [2, 3]: 100 to 1000 nM
- IC50 (human mTOR enzyme; rated class): 1 to 100 nM

Structure (SMILES): COCCO[C@]1(C(N)=O)CC[C@H](c2nc3c(-c4ccc(-c5ncc[nH]5)nc4)cnn3c(N)c2C(C)=O)CC1 [Compound 113, (1S,4S)-4-(3-(6-(1H-imidazol-2-yl)pyridin-3-yl)-6-acetyl-7-aminopyrazolo[1,5-a]pyrimidin-5-yl)-1-(2-methoxyethoxy) cyclohexanecarboxamide]
- IC50 [1, 3]: 100 to 1000 nM
- IC50 [2, 3]: 100 to 1000 nM
- IC50 (human mTOR enzyme; rated class): 1 to 100 nM

Structure (SMILES): Nc1c(Br)c([C@H]2CC[C@@](O)(CC(=O)O)CC2)nc2c(-c3ccc(-c4ccccc4)nc3)cnn12 [Compound 76, 2-((1R,4R)-4-(7-amino-6-bromo-3-(6-phenylpyridin-3-yl)pyrazolo[1,5-a]pyrimidin-5-yl)-1-hydroxycyclohexyl)acetic acid]
- IC50 [1, 3]: 100 to 1000 nM
- IC50 [2, 3]: 100 to 1000 nM
- IC50 (human mTOR enzyme; rated class): 1 to 100 nM

Structure (SMILES): C[C@]1(C(=O)O)CC[C@H](c2nc3c(-c4ccc(-c5ccccc5)nc4)cnn3c(N)c2Br)CC1 [Compound 1, (1R,4R)-4-(7-amino-6-bromo-3-(6-phenylpyridin-3-yl)pyrazolo[1,5-a]pyrimidin-5-yl)-1-methylcyclohexanecarboxylic acid]
- IC50 ([1]; numeric value): 275 nM
- IC50 ([2]; numeric value): 850 nM
- IC50 (human mTOR enzyme; numeric value): 1.33 nM

Structure (SMILES): COCCO[C@]1(C(=O)O)CC[C@H](c2nc3c(-c4cnn(-c5ccccc5)c4)cnn3c(N)c2S(C)(=O)=O)CC1 [Compound 41, (1S,4S)-4-(7-amino-6-(methylsulfonyl)-3-(1-phenyl-1H-pyrazol-4-yl)pyrazolo[1,5-a]pyrimidin-5-yl)-1-(2-methoxyethoxy)-cyclohexanecarboxylic acid]
- IC50 [1, 3]: 5000 to 15000 nM
- IC50 [2, 3]: 5000 to 15000 nM
- IC50 (human mTOR enzyme; rated class): 1 to 100 nM

Structure (SMILES): C[C@]1(C(=O)O)CC[C@H](c2nc3c(-c4ccc(-c5ccccc5)nc4)cnn3c(N)c2C#N)CC1 [Compound 25, (1R,4R)-4-(7-amino-6-cyano-3-(6-phenylpyridin-3-yl)pyrazolo[1,5-a]pyrimidin-5-yl)-1-methylcyclohexanecarboxylic acid]
- IC50 [1, 3]: 100 to 1000 nM
- IC50 [2, 3]: 100 to 1000 nM
- IC50 (human mTOR enzyme; rated class): 1 to 100 nM
